The source made the active and inactive calls.
Assays:
[1] = target: 1-phosphatidylinositol 4,5-bisphosphate phosphodiesterase beta-3 (Homo sapiens, UniProt Q01970); test: Fluorescence-based biochemical high throughput dose response assay to identify inhibitors of phospholipase C isozymes (PLC-B3).
[2] = target: 1-phosphatidylinositol 4,5-bisphosphate phosphodiesterase gamma-1 (Homo sapiens, UniProt P19174); test: Counterscreen for inhibitors of phospholipase C isozymes (PLC-B3): Fluorescence-based biochemical high throughput dose response assay to identify inhibitors of phospholipase C isozymes (PLC-gamma1).
[3] = non-specific 3'UTR reporter inhibition in Clone20-Shn3RL – cell-based, Renilla luciferase, cherry-picked, counter-screen for Shn3 inhibitor project, dose response (AID 624133); type: functional
[4] = reduction of Shn3 3'UTR-driven luciferase in osteoblasts – cell-based, Clone20 osteoblasts, firefly luciferase, cherry-picked, dose response (AID 624132); type: functional;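 note: firefly luciferase luminescence from reporter carrying the Shn3 3'UTR in osteoblasts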
[5] = loss of viability in HepG2 cells – cell-based, CellTiter-Glo, cherry-picked, cytotoxicity control for Shn3 inhibitor project, dose response (AID 624134); type: functional
fMet-Leu-Phe receptor = fMet-Leu-Phe receptor (Homo sapiens, UniProt P21462); test: formyl peptide receptor binders – dose response (AID 519); type: functional
[6] = target: T1, Nuclear receptor subfamily 0 group B member 1 (Homo sapiens, UniProt P51843); type: functional, cell-based;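 note: HEK293T cells transfected with SF-1 and DAX-1 plus StAR promoter luciferase reporter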
T1 sequence (P51843 whole entry): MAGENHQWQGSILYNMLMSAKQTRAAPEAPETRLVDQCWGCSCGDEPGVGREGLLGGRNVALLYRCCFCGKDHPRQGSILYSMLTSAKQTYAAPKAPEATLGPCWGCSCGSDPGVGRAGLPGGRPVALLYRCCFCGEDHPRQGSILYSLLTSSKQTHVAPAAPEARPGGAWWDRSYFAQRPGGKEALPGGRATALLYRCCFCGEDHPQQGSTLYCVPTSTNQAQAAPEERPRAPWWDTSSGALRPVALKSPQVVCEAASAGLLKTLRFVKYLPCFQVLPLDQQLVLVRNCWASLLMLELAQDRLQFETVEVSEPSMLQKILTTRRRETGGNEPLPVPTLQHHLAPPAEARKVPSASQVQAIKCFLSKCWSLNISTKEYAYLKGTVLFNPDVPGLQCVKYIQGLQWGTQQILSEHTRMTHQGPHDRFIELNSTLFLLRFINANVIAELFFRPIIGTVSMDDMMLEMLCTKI

cells [7] = type: functional, cell-based
Galanin receptor type 3 = target: T2, Galanin receptor type 3 (Homo sapiens, UniProt O60755); test: Fluorescence-based cell-based primary high throughput dose response assay to identify antagonists of the Galanin Receptor 3 (GalR3).; type: functional
T2 sequence (O60755 whole entry): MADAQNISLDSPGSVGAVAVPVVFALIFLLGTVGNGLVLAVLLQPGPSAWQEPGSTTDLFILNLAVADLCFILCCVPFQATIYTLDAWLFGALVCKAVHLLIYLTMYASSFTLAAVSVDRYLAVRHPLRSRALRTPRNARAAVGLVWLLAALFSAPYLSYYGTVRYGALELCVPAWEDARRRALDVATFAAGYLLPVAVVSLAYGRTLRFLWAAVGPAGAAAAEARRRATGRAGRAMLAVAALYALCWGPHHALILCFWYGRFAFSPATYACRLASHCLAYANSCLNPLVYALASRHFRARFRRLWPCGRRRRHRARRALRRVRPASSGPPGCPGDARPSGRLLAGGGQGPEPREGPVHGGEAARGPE

cells [8] = type: functional, cell-based; conditions: HEK-CNG
cells [9] = test: cells
Major prion protein = Major prion protein (Homo sapiens, UniProt P04156); type: functional, cell-based
[10] = OVCAR8 cell viability loss – plate reader, dry powder samples, PAX8 project, dose response (AID 743197); type: functional, cell-based; conditions: OVCAR-8
[11] = IGROV1 cell killing – plate reader, dry powder samples, PAX8 inhibitor project, dose response (AID 743043); type: functional, cell-based; conditions: IGROV-1
Paired box protein Pax-8 = Paired box protein Pax-8 (Homo sapiens, UniProt Q06710); test: PAX8 transcriptional activity inhibition in RMG-I – RMG-I cells, luciferase, cherry-pick, dose response (AID 687027); type: functional, cell-based;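 note: luciferase reporter driven by Pax8 target thyroperoxidase promoter measured by SteadyGlo luminescence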
[12] = target: Long-chain-fatty-acid--AMP ligase FadD28 (Mycobacterium tuberculosis, UniProt P9WQ59); test: Fluorescence polarization aasay to screen for inhibitors that compete for the binding of FadD28 to a bisubstrate Measured in Biochemical System Using Plate Reader - 2147-01_Inhibitor_Dose_CherryPick_Activity.; type: functional, Mycobacterium tuberculosis H37Rv
[13] = general mammalian cell viability loss – inhibitor set, cherry-pick, set 2, cytotoxicity control for miR-122 modulator project, dose response (AID 720697); type: functional, cell-based
Protein Wnt-3a = Protein Wnt-3a (Mus musculus, UniProt P27467); test: SAR analysis of small molecule antagonists of Gli-SUFU in a Wnt3a luminescent reporter assay.; type: functional
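Throughout, for EC50: target is galanin receptor GalR3 read with a cAMP biosensor in HEK293 cells.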

O=C(c1cccc(S(=O)(=O)N2CCN(c3ccc(F)cc3)CC2)c1)N1CCCC(C(F)(F)F)C1 (configuration not stated)
IC50 [1]: > 122 µM (inactive)
IC50 [2]: > 122 µM (inactive)
AC50 [3]: 8.1 µM (active)
AC50 [4]: 0.942 µM (active)
AC50 [5]: 2.61 µM (active)

O=C(C1=C(O)C(=O)N(Cc2ccccc2)C1c1cccnc1)c1ccco1 (configuration not stated)
Ki (fMet-Leu-Phe receptor): 30.5 µM (inactive)

C/C(=N\NC(=O)c1ccccc1O)c1cccs1
IC50 [6]: > 67.5 µM (inactive)
IC50 (cells [7]): > 67.5 µM (inactive)

Cc1cc(Br)cn2c(Cc3cccc(Cl)c3)c(-c3ccco3)nc12
IC50 (Galanin receptor type 3): 8.41 µM (active)
EC50 (cells [8]): > 29.9 µM (inactive)
IC50 (cells [9]): 66.2 µM (inactive)
IC50 (Major prion protein): 10.5 µM (inactive)

N#Cc1ccc(-c2nc3ccc(Br)cn3c2Cc2cccc(F)c2)cc1
IC50 (cells [9]): > 138 µM (inactive)
IC50 (Major prion protein): 2.98 µM (active)

C[C@@H]1CN([C@@H](C)CO)C(=O)c2cc(NC(=O)Cc3ccccc3)ccc2O[C@@H](C)CCCCO[C@@H]1CN(C)Cc1ccc(C(F)(F)F)cc1
AC50 [10]: > 70 µM (inactive)
AC50 [11]: 31.7 µM (active)
AC50 (Paired box protein Pax-8): 7.23 µM (active)

O=c1c2c(O)cc(CSc3nnnn3-c3ccccc3)nc2[nH]n1-c1ccccc1
AC50 [12]: > 100 µM (inactive)

CNC(=O)C[C@@H]1CC[C@@H]2[C@H](COc3ccc(NC(=O)Nc4ccc(Cl)cc4)cc3C(=O)N2C)O1
AC50 [13]: 0.415 µM (active)

COc1ccccc1C(=O)N1C[C@@H]2[C@H](c3ccccc31)[C@H](CO)N2CC1CCCC1
AC50 [13]: 9.28 µM (active)

CCC(C)Nc1cc(NC(=O)c2ccccc2)ncn1 (configuration not stated)
IC50 (Protein Wnt-3a): > 21.8 µM (inactive)

CCN(CC)c1cc(NC(=O)c2ccccc2)nc(C)n1
IC50 (Protein Wnt-3a): > 21.8 µM (inactive)

Reference: ChEMBL document CHEMBL1201862, “PubChem BioAssay data set” (2004)
